Data published in paper PMC9088311, “Cyclic Thiosulfonates for Thiol-Mediated Uptake: Cascade Exchangers, Transporters, Inhibitors” (JACS Au, 2022).
“And” between values parts separate entries of the source, which are not always exact repeats. Equal values may be shown once. Read-outs that look alike come from different tables or passages of the source. Marks after values point to notes of the source that are not given here.

System: lentivirus with D614G SC2 spike protein, A549 cells overexpressing ACE2 and TMPRSS2
Assay type: cell-based, SARS-CoV-2
Design: key to qualitative inhibition of SC2 uptake (heatmap): –: −: inactive; ++: qualitative inhibition of SC2 uptake
Details: for IC50: read-out: IC50 of SC2 lentivector entry

CC(=O)O[C@H]1CSS(=O)(=O)C[C@H]1O [Compound 36]
VE, vector entry: 34 ± 3%

O=S1(=O)C[C@H](O)[C@H](O)CS1 (stereo in doubt) [Compound 3, (4S,5R)-4,5-dihydroxy-1,2-dithiane-1,1-dioxide]
inhibition of SC2 lentivector entry (in words): inactive | qualitative inhibition of SC2 uptake (heatmap): ++

O=C(NCCCCCCNC(=O)O[C@H]1CSS(=O)(=O)C[C@H]1OCc1ccccc1)O[C@H]1CSS(=O)(=O)C[C@H]1OCc1ccccc1 [Compound 33]
VE, vector entry: 56 ± 12% | IC50: ~5 µM

CCN1C(=O)C2SSSSC1C(=O)N2CC(=O)O (stereo not drawn) [Compound 47, reference compound]
VE, vector entry: 83 ± 12% | qualitative inhibition of SC2 uptake (heatmap): –

NCCNC(=O)O[C@H]1CSS(=O)(=O)C[C@H]1O [Compound 39]
VE, vector entry: 52 ± 31%

CCCNC(=O)O[C@H]1CSS(=O)(=O)C[C@H]1O[Si](C)(C)C(C)(C)C [Compound 43]
VE, vector entry: 99 ± 12% | inhibition of SC2 lentivector entry (in words): inactivity

CC(C)(C)[Si](C)(C)OC1CS(=O)(=O)SCC1OC(=O)NCCCCCCNC(=O)OC1CSS(=O)(=O)CC1O[Si](C)(C)C(C)(C)C (stereo not drawn) [Compound 4]
VE, vector entry: 46 ± 8% | IC50: ~10 µM and ~5 µM

O=C(O)c1cc(SSc2ccc([N+](=O)[O-])c(C(=O)O)c2)ccc1[N+](=O)[O-] [Compound 16, 5,5’-Dithiobis(2-nitrobenzoic acid), reference compound]
VE, vector entry: >100% | inhibition of SC2 lentivector entry (in words) (5 μM): weak activation rather than inhibition

O=S(O)CC(O)C(O)CSSCC(O)C(O)CS(=O)O (stereo not drawn) [Compound 37]
VE, vector entry: 42 ± 32%

O=C1O[C@H]2CSS(=O)(=O)C[C@H]2O1 [Compound 11]
VE, vector entry: 4 ± 1%

CC(C)(C)[Si](C)(C)O[C@H]1CS(=O)(=O)SC[C@H]1OC(=O)NCCNC(=O)CC(O)(CC(=O)NCCNC(=O)O[C@H]1CSS(=O)(=O)C[C@H]1O[Si](C)(C)C(C)(C)C)C(=O)NCCNC(=O)O[C@@H]1CSS(=O)(=O)C[C@@H]1O[Si](C)(C)C(C)(C)C (stereo partly drawn) [Compound 42]
VE, vector entry: 97 ± 15%

CC1(C)O[C@H]2CSS(=O)(=O)C[C@H]2O1 [Compound 13]
VE, vector entry: 80 ± 20%

O=S(O)CC(O)C(O)CSSCCSSCC(O)C(O)CS(=O)O (stereo not drawn) [Compound 40]
VE, vector entry: 64 ± 25%

O=c1c2ccccc2[se]n1-c1ccccc1 [Compound 46, Ebselen, reference compound]
VE, vector entry: 65 ± 13% | inhibition of SC2 lentivector entry (in words) (50 μM): more toxic than active

CC(C)(C)OC(=O)NCCNC(=O)O[C@H]1CSS(=O)(=O)C[C@H]1O [Compound 34]
VE, vector entry: 8 ± 6%

CC(C)(C)OC(=O)NCCNC(=O)O[C@H]1CSS(=O)(=O)C[C@H]1O[Si](C)(C)C(C)(C)C (racemic) [Compound 50]
VE, vector entry (inhibitor 5 μM (1 h), lentivirus 6 h, 3 days expression, n = 3, ±SD): 100 ± 40%

C#CCNC(=O)CC[C@H](NC(=O)COCCNC(=O)O[C@H]1CSS(=O)(=O)C[C@H]1O[Si](C)(C)C(C)(C)C)C(=O)NCCOCCNC(=O)O[C@H]1CSS(=O)(=O)C[C@H]1O[Si](C)(C)C(C)(C)C [Compound 44]
VE, vector entry: 103 ± 12%

CC#CI1OC(=O)c2ccccc21 [Compound 49, reference compound]
VE, vector entry: >100% | inhibition of SC2 lentivector entry (in words): did not inhibit | qualitative inhibition of SC2 uptake (heatmap): –

CC(=O)/C=C1/C(=O)N(C)c2ccccc21 [Compound 48, super-cinnamaldehyde, reference compound]
VE, vector entry: >100% | inhibition of SC2 lentivector entry (in words) (5 μM): weak activation rather than inhibition

O=C(N[C@H]1CCS(=O)(=O)SC1)N[C@H]1CCS(=O)(=O)SC1 [Compound 35]
VE, vector entry: 25 ± 3% | inhibition of SC2 lentivector entry (in words): inactivity | inhibition of SC2 lentivector entry (in words) (50 μM): high activity

CC(C)(C)[Si](C)(C)O[C@@H]1CS(=O)(=O)SC[C@@H]1O [Compound 6]
VE, vector entry: 105 ± 3%

O=C(O)Cn1[se]c2ccccc2c1=O [Compound 45, reference compound]
VE, vector entry: 31 ± 3% | qualitative inhibition of SC2 uptake (heatmap): ++ | inhibition of SC2 lentivector entry (in words) (50 μM): more active and nontoxic

CC(C)(C)[Si](C)(C)O[C@@H]1CS(=O)(=O)SC[C@@H]1OC(=O)NCC[N+](C)(C)C [Compound 38]
VE, vector entry: 43 ± 26%

O=C(NCCCCCCNC(=O)O[C@H]1CSS(=O)(=O)C[C@H]1O)O[C@H]1CSS(=O)(=O)C[C@H]1O [Compound 41]
VE, vector entry: >100 ^f % | inhibition of SC2 lentivector entry (in words): inactive
